Results as given in patent US10723765B2, “Beta-hairpin peptidomimetics as selective elastase inhibitors” (POLYPHOR AG, priority 2013, dated 2020).
Non-standard residues stand in square brackets, D forms with d. Residues, ends and D or L forms follow the SMILES beside them. hTyr = N[C@@H](CCc1ccc(O)cc1)C(=O)O

Columns and labels:
Assay type in all cases: biochemical
[1] = target: T1, human neutrophil elastase (Homo sapiens, UniProt P08246); test: Inhibition of human neutrophil elastase (MeOSuc-AAPV-pNA hydrolysis); settings: 10 nM enzyme, 0.3 mM substrate, 37° C., pH 8; read-out: Human neutrophil elastase (hNE) IC50
T1 construct: purchased Serva Electrophoresis, Germany
T1 sequence (P08246 30-267): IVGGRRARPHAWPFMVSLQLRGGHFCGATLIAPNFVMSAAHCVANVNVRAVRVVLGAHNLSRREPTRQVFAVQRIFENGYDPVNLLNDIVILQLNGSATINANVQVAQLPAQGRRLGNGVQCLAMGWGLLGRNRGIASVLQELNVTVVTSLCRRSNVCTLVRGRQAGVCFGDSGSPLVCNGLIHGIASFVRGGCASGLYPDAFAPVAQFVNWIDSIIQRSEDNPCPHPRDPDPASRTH
Experimental: 2.2. Inhibition of Human Neutrophil Elastase
The ability of the peptides of the invention to inhibit the hydrolysis activity of human neutrophil elastase (Serva Electrophoresis, Germany) using the synthetic tetrapeptidic substrate MeOSuc-AAPV-pNA (Bachem, Switzerland) was determined as follows:
(§1) The above substrate (0.3 mM) and human neutrophil elastase (10 nM) were incubated at 37° C. with serial dilutions of the peptides (1% DMSO final) in assay buffer (50 mM Tris, pH 8, 300 mM NaCl, 0.01% Tween20). The release of pNA was followed by monitoring the change in absorbance at 405 nm for 30 minutes. Control assays with the same assay set-up as above, but without peptide, ran linearly. The dose-response data were fitted to the 4-parameter Hill equation providing the IC50 value using Graphpad (Prism 5).

[2] = target: T2, porcine pancreatic elastase (Sus scrofa, UniProt P00772); test: Inhibition of porcine pancreatic elastase (MeOSuc-AAA-pNA hydrolysis); settings: for IC50: 15 nM enzyme, 1 mM substrate, 37° C., pH8, read-out: Porcine pancreatic elastase (PPE) IC50; for hNE/PPE selectivity: ratio of PPE IC50 to hNE IC50
T2 construct: purchased Sigma, USA
T2 sequence (P00772 27-266): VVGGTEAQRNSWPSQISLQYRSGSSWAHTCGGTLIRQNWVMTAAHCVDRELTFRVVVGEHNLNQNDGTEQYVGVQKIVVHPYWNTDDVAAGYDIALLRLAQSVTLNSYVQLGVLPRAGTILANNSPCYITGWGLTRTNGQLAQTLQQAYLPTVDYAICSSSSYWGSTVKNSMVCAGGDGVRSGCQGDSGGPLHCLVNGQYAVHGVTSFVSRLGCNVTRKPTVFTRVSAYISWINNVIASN
Experimental: 2.3. Inhibition of Porcine Pancreatic Elastase
The ability of the peptides of the invention to inhibit the hydrolysis activity of porcine pancreatic elastase (Sigma, USA) using the synthetic tripeptidic substrate MeOSuc-AAA-pNA (Bachem, Switzerland) was determined as follows:
as §1, with “(1” for “(0.3”, “porcine pancreatic” for “neutrophil”, “(15” for “(10”, “(0.5%” for “(1%”, “pH8, 100” for “pH 8, 300”

human proteinase 3 = target: T3, human proteinase 3 (Homo sapiens, UniProt P24158); test: Inhibition of human proteinase 3 (Boc-Ala-Ala-Nva-SBzl); settings: for IC50: 10 nM enzyme, 1 mM substrate, 37° C., pH7.4, read-out: Human proteinase 3 (hPr3) IC50; for hNE/hPr3 selectivity: ratio of hPr3 IC50 to hNE IC50
T3 construct: purchased Elastin Products Company, USA
T3 sequence (P24158 28-248): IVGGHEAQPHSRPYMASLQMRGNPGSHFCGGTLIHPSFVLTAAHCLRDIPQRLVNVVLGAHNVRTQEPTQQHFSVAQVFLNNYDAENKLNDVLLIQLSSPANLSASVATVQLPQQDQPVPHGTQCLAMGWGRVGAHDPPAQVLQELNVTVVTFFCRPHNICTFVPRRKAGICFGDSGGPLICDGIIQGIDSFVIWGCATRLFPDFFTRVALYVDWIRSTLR
Experimental: 2.4. Inhibition of Human Proteinase 3
The inactivation of human proteinase 3 (Elastin Products Company, USA) by the peptides of the invention using synthetic tripeptidic substrate Boc-Ala-Ala-Nva-SBzl (Elastin Products Company, USA) was determined as follows:
as §1, with “(1 mM), 4,4′-dithiodipyridine (250 μM)” for “(0.3 mM)”, “proteinase 3” for “neutrophil elastase”, “(0.5%” for “(1%”, “pH7.4, 150” for “pH 8, 300”, “reaction process” for “release of pNA”, “340” for “405”

IC50 [1] | IC50 [2] | hNE/PPE selectivity [2] | IC50 (human proteinase 3) | hNE/hPr3 selectivity (human proteinase 3) | SMILES
0.0156 µM | 66.4 µM | 4256 | 83.9 µM | 5378 | CC[C@H](C)[C@@H]1NC(=O)[C@H](CO)NC(=O)[C@H](C)NC(=O)[C@H]([C@@H](C)O)NC(=O)[C@H](CCc2ccc(O)cc2)NC(=O)[C@H](CCCNC(=N)N)NC(=O)[C@@H]2CCCN2C(=O)[C@H]2CCCN2C(=O)[C@H]([C@@H](C)O)NC(=O)[C@H](CCCCN)NC(=O)[C@H](CCC(N)=O)NC(=O)[C@@H]2CCCN2C(=O)[C@@H]2CCCN2C1=O [Example 17, Cyclo(-Arg-hTyr-Thr-Ala-Ser-Ile-Pro-Pro-Gln-Lys-Thr-^DPro-Pro-)] (cyclo(R[hTyr]TASIPPQKT[dP]P))
0.0069 µM | 7.2 µM | 1043 | 1.8 µM | 261 | CC[C@H](C)[C@@H]1NC(=O)[C@H](CO)NC(=O)[C@H](C)NC(=O)[C@H]([C@@H](C)O)NC(=O)[C@H](C(C)C)NC(=O)[C@H](CCCNC(=N)N)NC(=O)[C@@H]2CCCN2C(=O)[C@H]2CCCN2C(=O)[C@H](Cc2ccc(O)cc2)NC(=O)[C@H](CCCCN)NC(=O)[C@H](CCC(N)=O)NC(=O)[C@@H]2CCCN2C(=O)[C@@H]2CCCN2C1=O [Example 18, Cyclo(-Arg-Val-Thr-Ala-Ser-Ile-Pro-Pro-Gln-Lys-Tyr-^DPro-Pro-)] (cyclo(RVTASIPPQKY[dP]P))
